What was measured:
BT549 = test: Anchorage Independent Soft Agar Tumor Growth Assay, BT549; format: cell-based; conditions: percent of DMSO-treated control at Ymin plateau
Procedure: Cells were seeded into either a T-75 or a T-175 flask 3-4 days prior to 96-well assay plating such that the flasks were approximately 70-80% confluent of the time of harvest. Cells were harvested using 0.25% trypsin-EDTA (Invitrogen #25200056). Trypan Blue exclusion staining was used to determine cell number. Viable cells were plated in clear, flat bottom 96-well plates (BD #353075) under anchorage independent conditions at 2,000-10,000 cells per well depending on the cell line. To generate anchorage independent growth conditions, a 5% agar stock solution in water was made and autoclaved to melt and sterilize. From the 5% agar solution, a 0.6% agar/media+10% fetal bovine serum (FBS) solution was made to generate a bottom agar layer in the plates to prevent cell attachment. Seventy five microliters per well of the 0.6% agar-media solution was added to the plates. […] The next day one plate of cells was processed at the time of compound addition to quantify the starting number of cells (T=0 or T0). […] Following the 6-day incubation, 20 μl of Alamar Blue (Invitrogen #DAL1100) was added to the cells, incubated at 5% CO2 and 37° C. for 6 hours and the plates read on a Spectramax (Gemini EM) at 530 nm (excitation) and 590 nm (emission) with the auto cut-off disabled. […]

WM-115 = test: Anchorage Independent Soft Agar Tumor Growth Assay, WM-115; format: cell-based; conditions: percent of DMSO-treated control at Ymin plateau
Procedure: (§1) Twenty-two Phosphatase and Tensin Homolog (PTEN) wild-type or PTEN deficient tumor cell lines were cultured generally according to instructions supplied by cell culture supplier American Type Culture Collection, Manassas, Va., with 10% fetal bovine serum at 5% CO2 and 37° C. Cells were seeded into either a T-75 or a T-175 flask 3-4 days prior to 96-well assay plating such that the flasks were approximately 70-80% confluent of the time of harvest. Cells were harvested using 0.25% trypsin-EDTA (Invitrogen #25200056). Trypan Blue exclusion staining was used to determine cell number. Viable cells were plated in clear, flat bottom 96-well plates (BD #353075) under anchorage independent conditions at 2,000-10,000 cells per well depending on the cell line. To generate anchorage independent growth conditions, a 5% agar stock solution in water was made and autoclaved to melt and sterilize. […] The next day one plate of cells was processed at the time of compound addition to quantify the starting number of cells (T=0 or T0). […] Following the 6-day incubation, 20 μl of Alamar Blue (Invitrogen #DAL1100) was added to the cells, incubated at 5% CO2 and 37° C. for 6 hours and the plates read on a Spectramax (Gemini EM) at 530 nm (excitation) and 590 nm (emission) with the auto cut-off disabled. […]

C32 = test: Anchorage Independent Soft Agar Tumor Growth Assay, C32; format: cell-based; conditions: percent of DMSO-treated control at Ymin plateau
Procedure: as §1

SW1783 = test: Anchorage Independent Soft Agar Tumor Growth Assay, SW1783; format: cell-based; conditions: percent of DMSO-treated control at Ymin plateau
Procedure: as §1

UM-UC-3 = test: Anchorage Independent Soft Agar Tumor Growth Assay, UM-UC-3; format: cell-based; conditions: percent of DMSO-treated control at Ymin plateau
Procedure: as §1

SW1088 = test: Anchorage Independent Soft Agar Tumor Growth Assay, SW1088; format: cell-based; conditions: percent of DMSO-treated control at Ymin plateau
Procedure: as §1

H4 = test: Anchorage Independent Soft Agar Tumor Growth Assay, H4; format: cell-based; conditions: percent of DMSO-treated control at Ymin plateau
Procedure: as §1

CHL-1 = test: Anchorage Independent Soft Agar Tumor Growth Assay, CHL-1; format: cell-based; conditions: percent of DMSO-treated control at Ymin plateau
Procedure: as §1

UACC-62 = test: Anchorage Independent Soft Agar Tumor Growth Assay, UACC-62; format: cell-based; conditions: percent of DMSO-treated control at Ymin plateau
Procedure: as §1

HCC19377 = test: Anchorage Independent Soft Agar Tumor Growth Assay, HCC19377; format: cell-based; conditions: percent of DMSO-treated control at Ymin plateau
Procedure: as §1

PC-3 = test: Anchorage Independent Soft Agar Tumor Growth Assay, PC-3; format: cell-based, human; conditions: percent of DMSO-treated control at Ymin plateau
Procedure: as §1

HCC70 = test: Anchorage Independent Soft Agar Tumor Growth Assay, HCC70; format: cell-based; conditions: percent of DMSO-treated control at Ymin plateau
Procedure: as §1

MDA-MB-468 = test: Anchorage Independent Soft Agar Tumor Growth Assay, MDA-MB-468; format: cell-based; conditions: percent of DMSO-treated control at Ymin plateau
Procedure: as §1

HCC1395 = test: Anchorage Independent Soft Agar Tumor Growth Assay, HCC1395; format: cell-based; conditions: percent of DMSO-treated control at Ymin plateau
Procedure: as §1

U-87MG = test: Anchorage Independent Soft Agar Tumor Growth Assay, U-87MG; format: cell-based; conditions: percent of DMSO-treated control at Ymin plateau
Procedure: as §1

BT474 = test: Anchorage Independent Soft Agar Tumor Growth Assay, BT474; format: cell-based; conditions: percent of DMSO-treated control at Ymin plateau
Procedure: as §1

U251 = test: Anchorage Independent Soft Agar Tumor Growth Assay, U251; format: cell-based; conditions: percent of DMSO-treated control at Ymin plateau
Procedure: as §1

HCC1954 = test: Anchorage Independent Soft Agar Tumor Growth Assay, HCC1954; format: cell-based; conditions: percent of DMSO-treated control at Ymin plateau
Procedure: as §1

Colo205 = test: Anchorage Independent Soft Agar Tumor Growth Assay, Colo205; format: cell-based; conditions: percent of DMSO-treated control at Ymin plateau
Procedure: as §1

HCT-116 = test: Anchorage Independent Soft Agar Tumor Growth Assay, HCT-116; format: cell-based; conditions: percent of DMSO-treated control at Ymin plateau
Procedure: as §1

SKOV-3 = test: Anchorage Independent Soft Agar Tumor Growth Assay, SKOV-3; format: cell-based; conditions: percent of DMSO-treated control at Ymin plateau
Procedure: as §1

LOXIMVI = test: Anchorage Independent Soft Agar Tumor Growth Assay, LOXIMVI; format: cell-based; conditions: percent of DMSO-treated control at Ymin plateau
Procedure: as §1

pAKT (pAKT/tAKT) = test: Pharmacodynamic effects, pAKT in PC-3 xenograft tumors; format: in vivo, mouse; conditions: mice given 3 mg/kg or 10 mg/kg, 1-24 hours
Procedure: Female nude mice (Charles River Laboratories, Wilmington, Del.; strain CD-1-Foxn1, 6 weeks of age) were injected subcutaneously with 2 million PC-3 (human prostate carcinoma) cells mixed 1:1 with Matrigel in the flank. Tumors were allowed to grow for approximately 5 weeks. […] The tumor was excised. Half of each tumor was immediately processed by Medicon (BD Catalog #340592) in 1 mL Meso-Scale Discovery (MSD) lysis buffer with protease inhibitors (Roche complete protease cocktail, cat#04 693 116 001) and phosphatase inhibitors (Sigma, cat #P2850 and P-5726) for 30-60 seconds and transferred to 1.5 mL Eppendorf tubes. Tubes remained on wet ice until they were centrifuged for 10 minutes at 4° C. at maximum speed in a tabletop refrigerated centrifuge. Tumor lysates were serially diluted in 96-well polypropylene plates on wet ice. Lysates (150 μL) were loaded in row 1; rows 2-12 were loaded with 75 μL of complete Meso Scale Discovery (MSD) lysis buffer (supplied in MSD kit; #[…]-3). Samples were serially diluted 2-fold across the plate by sequential transfer of 75 μL through well 11; row 12 contained lysis buffer only. […] Plates were washed as described above, before the addition of 150 μL of MSD read buffer and read immediately on a 6000 MSD plate reader. […] P/T AKT was calculated as shown: (phospho AKT(Ser473) signal)/[(phospho AKT(Ser473) signal)+(total AKT signal)]. […]

`Cc1c(Cn2c(C)nc3c(C(=O)O)cc(N4CCOCC4)cc32)cccc1C(F)(F)F` [Example 31, 2-methyl-1-{[2-methyl-3-(trifluoromethyl)phenyl]methyl}-6-(4-morpholinyl)-1H-benzimidazole-4-carboxylic acid] was tested, and the “Ymin ± StDev” value (BT549) was 52 ± 7, the “Ymin ± StDev” value (WM-115) was 54 ± 14 and the “Ymin ± StDev” value (C32) was 20 ± 14. For the same compound, the “Ymin ± StDev” value (SW1783) was 69 ± 4, the “Ymin ± StDev” value (UM-UC-3) was 83 ± 29 and the “Ymin ± StDev” value (SW1088) was 36 ± 8. For the same compound, the “Ymin ± StDev” value (H4) was 55 ± 18, the “Ymin ± StDev” value (CHL-1) was 82 ± 2 and the “Ymin ± StDev” value (UACC-62) was 76 ± 18. The “Ymin ± StDev” value (HCC19377) was 67 ± 8, the “Ymin ± StDev” value (PC-3) was 82 ± 13 and the “Ymin ± StDev” value (HCC70) was 27 ± 8. For the same compound, the “Ymin ± StDev” value (MDA-MB-468) was 44 ± 6, the “Ymin ± StDev” value (HCC1395) was 26 ± 9 and the “Ymin ± StDev” value (U-87MG) was 34 ± 18. For the same compound, the “Ymin ± StDev” value (BT474) was 75 ± 3, the “Ymin ± StDev” value (U251) was 80 ± 17 and the “Ymin ± StDev” value (HCC1954) was greater than 80. For the same compound, the “Ymin ± StDev” value (Colo205) was greater than 80, the “Ymin ± StDev” value (HCT-116) was greater than 80 and the “Ymin ± StDev” value (SKOV-3) was greater than 80. For the same compound, the “Ymin ± StDev” value (LOXIMVI) was greater than 90 and the “inhibition of the pharmacodynamic marker pAKT (pAKT/tAKT)” value (pAKT (pAKT/tAKT)) was “dose dependent inhibition”.

From patent publication US8541411B2, “Benzimidazole derivatives as PI3 kinase inhibitors” (GlaxoSmithKline LLC, priority 2010, dated 2013)
